The subject of this assay is human mixed lymphocyte reaction (MLR). Nature of the assay: human mixed lymphocyte reaction (MLR) assay (immunosuppressant activity). The settings on record: Table 1. It counts as cell-based. How it is done: The immunosuppressant activity of the compounds of the present invention was determined using the human mixed lymphocyte reaction (MLR) assay described by Kino, T. et al. in Transplantation Proceedings, XIX(5):36-39,Suppl.

Usually IC50 stands for the concentration at which inhibition is half-maximal. A lower IC50 goes with inhibition by little substance. `CC[C@@H]1/C=C(\C)C[C@H](C)C[C@H](OC)[C@H]2O[C@@](O)(C(=O)C(=O)N3CCCC[C@H]3C(=O)O[C@H](/C(C)=C/[C@@H]3CC[C@@H](OC(=S)Oc4ccccc4)[C@H](OC)C3)[C@H](C)[C@@H](O)CC1=O)[C@H](C)C[C@@H]2OC` [Example 1] registered an IC50 (Lymphocyte) of 0.7 nM.

On to `CC[C@@H]1/C=C(\C)C[C@H](C)C[C@H](OC)[C@H]2O[C@@](O)(C(=O)C(=O)N3CCCC[C@H]3C(=O)O[C@H](/C(C)=C/[C@@H]3CC[C@@H](O)[C@H](OC)C3)[C@H](C)C=CC1=O)[C@H](C)C[C@@H]2OC` [Example 3], for which the IC50 (Lymphocyte) was 80 nM.

Where the note is “Lymphocyte”, `CC[C@@H]1/C=C(\C)C[C@H](C)C[C@H](OC)[C@H]2O[C@@](O)(C(=O)C(=O)N3CCCC[C@H]3C(=O)O[C@H](/C(C)=C/[C@@H]3CCC(=O)[C@H](OC)C3)[C@H](C)[C@@H](O)CC1=O)[C@H](C)C[C@@H]2OC` [Example 4] registered a half-maximal inhibitory concentration (IC50) of 0.4 nM.

Consider `CC[C@@H]1/C=C(\C)C[C@H](C)C[C@H](OC)[C@H]2O[C@@](O)(C(=O)C(=O)N3CCCC[C@H]3C(=O)O[C@H](/C(C)=C/[C@@H]3CC[C@@H](O)[C@H](OC)C3)[C@H](C)C(=O)CC1=O)[C@H](C)C[C@@H]2OC` [Example 7], for which, for the setting “Lymphocyte”, inhibition was half-maximal at 113 nM (IC50).

Molecule `CC[C@@H]1/C=C(\C)C[C@H](C)C[C@H](OC)[C@H]2O[C@@](O)(C(=O)C(=O)N3CCCC[C@H]3C(=O)O[C@H](/C(C)=C/[C@@H]3CC[C@@H](O)[C@H](OC)C3)[C@H](C)c3cc1nn3CCO)[C@H](C)C[C@@H]2OC` [Example 8] showed an IC50 (Lymphocyte) of 380 nM.

`CC[C@@H]1/C=C(\C)C[C@H](C)C[C@H](OC)[C@H]2O[C@@](O)(C(=O)C(=O)N3CCCC[C@H]3C(=O)O[C@H](/C(C)=C/[C@@H]3CC[C@@H](OC(=N)C(Cl)(Cl)Cl)[C@H](OC)C3)[C@H](C)[C@@H](O)CC1=O)[C@H](C)C[C@@H]2OC` [Example 9]: the IC50 (Lymphocyte) turned out to be 0.02 nM.

As to `CC[C@@H]1/C=C(\C)C[C@H](C)C[C@H](OC)[C@H]2O[C@@](O)(C(=O)C(=O)N3CCCC[C@H]3C(=O)O[C@H](/C(C)=C/[C@@H]3CC[C@@H](OP(=O)(Oc4ccccc4)Oc4ccccc4)[C@H](OC)C3)[C@H](C)[C@@H](OP(=O)(Oc3ccccc3)Oc3ccccc3)CC1=O)[C@H](C)C[C@@H]2OC` [Example 10], 11.1 nM corresponded to half-maximal inhibition (IC50).

In turn, `CC[C@@H]1/C=C(\C)C[C@H](C)C[C@H](OC)[C@H]2O[C@@](O)(C(=O)C(=O)N3CCCC[C@H]3C(=O)O[C@H](/C(C)=C/[C@@H]3CC[C@@H](O)[C@H](OC)C3)[C@H](C)C(N3CCN(Cc4ccccc4)CC3)CC1=O)[C@H](C)C[C@@H]2OC` (stereo partly drawn) [Example 16] displayed an IC50 (Lymphocyte) of 191 nM.

Turning to `CC[C@@H]1/C=C(\C)C[C@H](C)C[C@H](OC)[C@H]2O[C@@](O)(C(=O)C(=O)N3CCCC[C@H]3C(=O)O[C@H](/C(C)=C/[C@@H]3CC[C@@H](O)[C@H](OC)C3)[C@H](C)C(N3CCN(C)CC3)CC1=O)[C@H](C)C[C@@H]2OC` (stereo partly drawn) [Example 17], the IC50 (Lymphocyte) amounted to 47.4 nM.

In turn, `CC[C@@H]1/C=C(\C)C[C@H](C)C[C@H](OC)[C@H]2O[C@@](O)(C(=O)C(=O)N3CCCC[C@H]3C(=O)O[C@H](/C(C)=C/[C@@H]3CC[C@@H](O)[C@H](OC)C3)[C@H](C)C(N3CCN(c4ccccc4)CC3)CC1=O)[C@H](C)C[C@@H]2OC` (stereo partly drawn) [Example 18] yielded an IC50 (Lymphocyte) of 119 nM.

`CC[C@@H]1/C=C(\C)C[C@H](C)C[C@H](OC)[C@H]2O[C@@](O)(C(=O)C(=O)N3CCCC[C@H]3C(=O)O[C@H](/C(C)=C/[C@@H]3CC[C@@H](O)[C@H](OC)C3)[C@H](C)[C@@H](OC(=O)CI)CC1=O)[C@H](C)C[C@@H]2OC` [Example 21] returned an IC50 (Lymphocyte) of 9.3 nM.

For the setting “Lymphocyte”, `CC[C@@H]1/C=C(\C)C[C@H](C)C[C@H](OC)[C@H]2O[C@@](O)(C(=O)C(=O)N3CCCC[C@H]3C(=O)O[C@H](/C(C)=C/[C@@H]3CC[C@@H](OC(=O)CI)[C@H](OC)C3)[C@H](C)[C@@H](O)CC1=O)[C@H](C)C[C@@H]2OC` [Example 23] gave an IC50 of 1.4 nM.

Molecule `CC[C@@H]1/C=C(\C)C(O)[C@H](C)C[C@H](OC)[C@H]2O[C@@](O)(C(=O)C(=O)N3CCCC[C@H]3C(=O)O[C@H](/C(C)=C/[C@@H]3CC[C@@H](O)[C@H](OC)C3)[C@H](C)[C@@H](OC(=O)CI)CC1=O)[C@H](C)C[C@@H]2OC` (stereo partly drawn) [Example 25] yielded an IC50 (Lymphocyte) of 203 nM.

Regarding `CC[C@@H]1/C=C(\C)C(O)[C@H](C)C[C@H](OC)[C@H]2O[C@@](O)(C(=O)C(=O)N3CCCC[C@H]3C(=O)O[C@H](/C(C)=C/[C@@H]3CC[C@@H](OC(=O)CI)[C@H](OC)C3)[C@H](C)[C@@H](O)CC1=O)[C@H](C)C[C@@H]2OC` (stereo partly drawn) [Example 26], under “Lymphocyte”, the IC50 was determined as 125 nM.

`CC[C@@H]1/C=C(\C)C[C@H](C)C[C@H](OC)[C@H]2O[C@@](O)(C(=O)C(=O)N3CCCC[C@H]3C(=O)O[C@H](/C(C)=C/[C@@H]3CC[C@@H](O)[C@H](OC)C3)[C@H](C)C(N3CCNCC3)CC1=O)[C@H](C)C[C@@H]2OC` (stereo partly drawn) [Example 27] returned an IC50 (Lymphocyte) of 521 nM.

The values are drawn from US5604294A, “Macrocyclic immunomodulators” (priority 1994, dated 1997).
